Measurements published in patent US7727530B2, “Anti-cancer composition comprising proline or its derivatives and an anti-tumour antibody” (priority 2004, dated 2010).

Columns and labels:
Format in all cases: cell-based
[1] = system: MIAPaCa2 pancreatic cancer cell line; test: MTT proliferation (chemosensitivity) assay, MIAPaCa2
Method: (§1) MTT proliferation tests were performed as described. The proliferation control of both the untreated cells and the CHP pre-treated cells is set to 100%.
(§2) Unless otherwise indicated, all cell lines were obtained from the American Type Culture Collection (ATCC, Rockville, Md.) and grown to confluent monolayers in RPMI-1640 bicarbonate medium (Seromed, Berlin, Germany) in a humidified incubator (5% CO2, 37° C.). Cells were checked for mycoplasma contamination. The medium was supplemented with 10% heat-inactivated foetal bovine serum (Seromed) and 4 mM glutamine. The cells were subcultured by trypsination (0.03% trypsin containing 0.02% EDTA, three times a week). Cells numbers were counted using a TOA Sysmex microcellcounter (TOA, Tokyo, Japan).
(§3) 10^4 cells/well were distributed into 96-well microtitre plates (100 μl medium) and the compounds to be tested were added in another 100 μl volume. All compounds were diluted in triplicate or in most cases in quadruplicate. Plates were incubated under tissue culture conditions for 4 days, except those for tests investigating the relationship between application time and response, and cell viability was measured using a modified MTT assay (formazane dye formation from tetrazolium salts by mitochondrial reduction; EZ4U, Biomedica, Vienna, Austria), assessing mitochondrial activity and thereby cell viability/cell numbers. In brief, the supplied substrate was diluted in an activator solution and 20 μl of the mixture added per well for 2 hrs. The optical density was measured at 450 nm using an empty well as reference in a microplate reader (Eurogenetics, Brussels, Belgium). For each cell line, 8 wells were used to measure the MTT signal of the medium control without test substances and the proliferation in the test wells was calculated in relation to these control values set to 100%. Test results were recorded between 0.3 and 1.5 optical densities for slowly and rapidly proliferating cells respectively.
Experiments using pre-incubation with CHP were performed using more cell lines, namely BxPC3 and MIAPaCa2 pancreatic cancer cell lines. […]

[2] = system: A431 epidermoid carcinoma; test: MTT proliferation (chemosensitivity) assay, A431; conditions: A431 EGFR-overexpressing cell line
Method: as §1, §2
(§4) 10^4 cells/well were distributed into 96-well microtitre plates (100 μl medium) and the compounds to be tested were added in another 100 μl volume. All compounds were diluted in triplicate or in most cases in quadruplicate. Plates were incubated under tissue culture conditions for 4 days, except those for tests investigating the relationship between application time and response, and cell viability was measured using a modified MTT assay (formazane dye formation from tetrazolium salts by mitochondrial reduction; EZ4U, Biomedica, Vienna, Austria), assessing mitochondrial activity and thereby cell viability/cell numbers. […]

[3] = system: EGFR; test: EGFR expression of A431 cells after CHP pre-incubation; conditions: A431 cells pre-incubated with CHP
[4] = system: colo250 colon cancer cell lines; test: CHP with analytical EGFR-antibody, inhibition of proliferation; conditions: read-out: Inhibition of the control in %
Method: as §1, §2, §4

[5] = system: HT29 colon cancer cells; test: MTT proliferation (chemosensitivity) assay, HT29; conditions: high concentrations of Cetuximab
Method: as §1, §2, §4

[6] = system: WI38 normal fibroblasts; test: MTT proliferation (chemosensitivity) assay, WI38; conditions: W138
Method: as §1, §2, §4

[7] = system: Colo205 colon cancer cells; test: MTT proliferation (chemosensitivity) assay, Colo205
[8] = system: DLD1 colon cancer cells; test: MTT proliferation (chemosensitivity) assay, DLD1; conditions: high concentrations of Cetuximab
Method: as §1, §2, §4

[9] = system: SW620 colon cancer cells; test: MTT proliferation (chemosensitivity) assay, SW620
Method: as §1, §2
as §3, with “100%.” for “100%. Test results were recorded between 0.3 and 1.5 optical densities for slowly and rapidly proliferating cells respectively.”
SW620chp4 and A431chp4 cells represent cells pre-treated with 400 μg/ml CHP for 5 days under tissue culture conditions.

[10] = Homo sapiens, COLO 205, read-out: proliferation activity (% of control)
[11] = Homo sapiens, read-out: proliferation activity (% of control)
[12] = Homo sapiens, SW-620, read-out: proliferation activity (% of control)

O=C(O)[C@@H]1C[C@H](O)CN1 [CHP, Cis-4-hydroxy-L-proline]
interaction CHP-Cetuximab, pre-incubation with CHP 200 μg/ml [1]: antagonistic interaction | interaction with Rituximab, CHP pre-treatment ([1]; 400 μg/ml CHP for 5 days): synergy | interaction Avastatin-CHP pre-incubation ([1]; high concentrations of Avastatin): Slightly synergistic effects | interaction of CHP pre-incubation with Cetuximab [2]: antagonistic interaction | expression of EGFR [3]: reduced expression of EGFR | inhibition at 200 µg/mL ([4]; CHP 200 μg/ml alone): 7.3 ± 8.1% | inhibition at 100 µg/mL ([4]; CHP100, CHP 100 μg/ml alone): 2.9 ± 10.1% | interaction with Cetuximab, sequential combination (CHP pre-treatment) [5]: antagonistic effects | interaction with Cetuximab, sequential combination (CHP pre-treatment) [6]: antagonistic effects | interaction with Cetuximab, direct combination ([7]; C205, CHP 400 μg/ml, at 5 and […] (printed as concentrations of CHP)): antagonistic | interaction with Cetuximab, direct combination ([7]; C205, CHP 400 μg/ml, other concentrations): no significant interaction | interaction Avastatin-CHP pre-incubation ([7]; Colo205, high concentrations of Avastatin): Slightly synergistic effects | interaction with Cetuximab, direct combination ([7]; Colo205 cells, higher concentrations of CHP (50, 200 and 400 μg/ml), Cetuximab 40 μg/ml): antagonistic | activity at 12.5 µg/mL [7, 10]: 92.2 ± 1.4% | activity at 25 µg/mL [7, 10]: 94.4 ± 6.2% | activity at 50 µg/mL [7, 10]: 84.2 ± 2.1% | activity at 200 µg/mL [7, 10]: 15.7 ± 1% | activity at 400 µg/mL [7, 10]: 9.9 ± 0.4% | activity at 100 µg/mL [7, 11]: 45.5 ± 3.2% | interaction with Cetuximab, sequential combination (CHP pre-treatment) [8]: antagonistic effects | activity at 12.5 µg/mL [9, 12]: 98.7 ± 3% | activity at 25 µg/mL [9, 12]: 92.3 ± 0.9% | activity at 50 µg/mL [9, 12]: 91.9 ± 4.1% | activity at 200 µg/mL [9, 12]: 69.9 ± 2.6% | activity at 400 µg/mL [9, 12]: 51.3 ± 3.7% | activity at 100 µg/mL [9, 11]: 85.2 ± 0.7% | interaction with Cetuximab, direct combination ([9]; SW620 cells, low concentrations of CHP (6.3-50 μg/ml), Cetuximab 40 μg/ml): antagonistic

CCOC(=O)[C@@H]1CC(O)CN1C (stereo partly shown) [A1.21, 4-hydroxy-1-methyl-proline ethyl ester]
proliferation activity (% of control) ([7]; Colo 205 cells pre-incubated with the derivative 50 μg/ml for 5 days, then Cetuximab, Cetuximab concentrations not given): 94.5 ± 1.7%
